Literature values in patent publication US20150072881A1 (priority 2010, published 2015).
“Also recorded” adds a separate entry of the source. Ends that are not written are not given here.

Key:
[1] = system: genes (and gene products, eg., mRNA or protein); settings: in vivo
Pomc = settings: anterior pituitary cell line
dopamine = settings: directly or indirectly
[2] = system: opiate receptor-like 1 (OPRL-1); settings: amygdala of alcoholics
pronociceptin (PNOC) = settings: hippocampus of alcoholics
Tsc22d3 = settings: Western blotting; drug-regulated gene
Sgk1 = settings: Western blotting; morphine-induced
[3] = system: PC12 clonal cell line from chromaffin adrenal cells
[4] = system: Leptin receptor expression in VTA

With `N[C@@H]1C[C@H]1c1ccccc1` (racemic) [Tranylcypromine] as the compound, how does the mRNA increase [1] read?
The mRNA increase was “dopamine D3 receptor mRNA in shell of the nucleus accumbens”.

Which “blockade of substance-induced mRNA increase” value [1] does the source give for `Nc1ncnc2c1ncn2[C@@H]1O[C@@H]2COP(O)(=S)O[C@H]2[C@H]1O` (single isomer, unassigned) [Rp-cAMPS, adenosine-3′,5′ cyclinc monophosphorothioate, Rp-isomer] here?
The value was “CART - effect attenuated by inhibition of PKA with H89 [N-(2-”.

For `CN(C)CCC=C1c2ccccc2CCc2ccccc21` [Amitriptyline], which mRNA increase [1] is on record?
Its mRNA increase is “dopamine D3 receptor mRNA in shell of the nucleus accumbens;; also recorded: D1 and D2 receptors [1]”.

Which results are given for `CC(N)Cc1ccccc1` (stereo not drawn) [Amphetamine]?
mRNA decrease [1]: Penk in CeA and anterior medial CPu [1]; also recorded: GluR1 in nucleus acumbens shell, GluR2 in core and shell [3]; mRNA increase [1]: Penk in frontal cortex; Pdyn in AMG [1]; also recorded: mGluR8 in rat dorsal and ventral striatum, as well as cortex,; also recorded: After 3 days of withdrawl, GluR1 in PFC [3]; also recorded: Mu receptors in VTA; Pdyn in CPu and NAc [1]

For `CCCCCCC(C)(C)c1ccc([C@@H]2C[C@H](O)CC[C@H]2CCCO)c(O)c1` [CP-55,940], which mRNA increase [1] is on record?
Its mRNA increase is “Increased Penk in NAc and CPu, Tu and Pir, HPT (both PVN”.

With `CNCCCN1c2ccccc2CCc2ccccc21` [Desipramine] as the compound, how does the mRNA increase [1] read?
Its mRNA increase is “dopamine D3 receptor mRNA in shell of the nucleus accumbens”.

For `COc1ccc2c(c1)[C@]13CCCC[C@@H]1[C@H](C2)N(C)CC3` [Dextromethorphan], which mRNA increase [1] is on record?
Its mRNA increase is 40 mg/kg ip in rats caused increase of tyrosine hydroxylase (TH).

With `Cl.O=S(=O)(NCCNCC=Cc1ccc(Br)cc1)c1cccc2cnccc12` [H89, N-(2-[p-bromocinnamylamino]ethyl)-5-isoquinoline-sulfonamide hudrochloride] as the compound, how does the “blockade of substance-induced mRNA increase” value [1] read?
The value was “CART - effect attenuated by inhibition of PKA with H89 [N-(2-”.

For `CC(=O)Oc1ccc2c3c1O[C@H]1[C@@H](OC(C)=O)C=C[C@H]4[C@@H](C2)N(C)CC[C@@]341` [Heroin], which mRNA decrease [1] is on record?
The mRNA decrease was “DAT in paranigral nucleus and mesolimbic division of the ventral tegmental; also recorded: area. Reduction of Nurr1expression with age in heroin users [2]; also recorded: tyrosine hydroxylase in mesolimbic dopamine neurons [3]”.

What about the mRNA increase [1] of the same compound?
Its mRNA increase is “heroin abuse. Express higher Penk mRNA [1]; also recorded: TH and alpha synuclein in VTA PN in heroin users with no; also recorded: Penk; NAc PENK in Met/Met (control) heroin abusers [3]”.

With `CN(C)CCCN1c2ccccc2CCc2ccccc21` [Imipramine] as the compound, how does the mRNA increase [1] read?
The mRNA increase was “dopamine D3 receptor mRNA in shell of the nucleus accumbens;”.

Which mRNA decrease [1] does the source give for `CC(C)C[C@H](N)C(=O)O` [Leucine] here?
Its mRNA decrease is “FTO in hypothalamus of rodents [1]”.

With `CN[C@@H](C)Cc1ccccc1` [Methamphetamine] as the compound, how does the mRNA increase [1] read?
The mRNA increase was “Pdyn in HPT [1]; also recorded: Increased TNF-alpha in normal animals [2]”.

Which mRNA decrease [1] does the source give for `CCCCCCCCCC(=O)O[C@H]1CC[C@H]2[C@@H]3CCC4=CC(=O)CC[C@@H]4[C@H]3CC[C@]12C` [Nandrolone decanoate] here?
The mRNA decrease was “Dopamine D(1)-receptor subtype in the caudate putamen and nucleus”.

And the mRNA increase [1]?
The mRNA increase was “Dopamine D(2) receptor at the lowest doeses in the caudate”.

With `CC1NCCc2cc(O)c(O)cc21` (stereo not drawn) [R (+)- salsolinol] as the compound, how does the mRNA decrease (Pomc) read?
Its mRNA decrease is “POMC anterior pituitary cell line [1]”.

And the “cAMP level / production” value (cAMP)?
The value was “whereas R(+)- SAL does not affect cAMP production [1]”.

With `CCCCC/C=C\C/C=C\C/C=C\C/C=C\CCCC(=O)N[C@H](C)CO` [R-methanandamide] as the compound, how does the mRNA increase [1] read?
Its mRNA increase is “Increased Penk in NAc and CPu, Tu and Pir, HPT (both PVN”.

For `C[C@@H]1NCCc2cc(O)c(O)cc21` [S(−)-salsolinol], which mRNA decrease (Pomc) is on record?
The mRNA decrease was “POMC anterior pituitary cell line [1]”.

What about the “cAMP level / production” value (cAMP) of the same compound?
The value was “Decrease in cAMP level occurs after treatment with S(−)-SAL,”.

Which “inhibition of THC-induced MAPK/ERK activation” value (MAPK/ERK; in vivo) does the source give for `Cc1c(C(=O)NN2CCCCC2)nn(-c2ccc(Cl)cc2Cl)c1-c1ccc(Cl)cc1` [SR 141716A] here?
Its value is “accumbens. This activation is totally inhibited by selective”.

Which “effect on dopamine release or re-uptake” value (dopamine) does the source give for `CCCCCc1cc(O)c2c(c1)OC(C)(C)[C@@H]1CCC(C)=C[C@@H]21` [THC, Delta-tetrahydrocannabinol] here?
The value was “enhance release or block re-uptake of dopamine”.

And the “activation (phosphorylation) of MAPK/ERK” value (MAPK/ERK; dorsal striatum and nucleus accumbens)?
The value was “THC induces a progressive and transient activation”.

And the mRNA increase [1]?
The mRNA increase was “Increased Penk in NAc and CPu, Tu and Pir, HPT (both PVN; also recorded: BDNF in reward center (nucleus accumbens, medial prefrontal”.

Which mRNA increase [1] does the source give for `CCCN(CCC)C1Cc2cc(OC)c(OC)cc2C1` [U99194A] here?
Its mRNA increase is “c-fos (similar pattern to that produced by d-amphetamine) in”.

For `CCO` [ethanol], which “effect on dopamine release or re-uptake” value (dopamine) is on record?
Its value is “enhance release or block re-uptake of dopamine”.

And the “opiate receptor-like 1 (OPRL-1) mRNA decrease” value [2]?
The value was “opiate receptor-like 1 (OPRL-1) 1.4-fold in amygdala of alcoholics [2]”.

And the “pronociceptin (PNOC) mRNA decrease” value (pronociceptin (PNOC))?
The value was “pronociceptin (PNOC), 1.7-fold in hippocampus of alcoholics”.

With `CN1CC[C@]23c4c5ccc(O)c4O[C@H]2[C@@H](O)C=C[C@H]3[C@H]1C5` [morphine] as the compound, how does the “Tsc22d3 protein level (increase)” value (Tsc22d3) read?
Its value is “approximately 1.5 fold”.

What about the “level of the Sgk1 protein (significant decrease)” value (Sgk1) of the same compound?
The value was 0.75 fold.

Which “effect on dopamine release or re-uptake” value (dopamine) does the source give for `CN1CCCC1c1cccnc1` (stereo not drawn) [nicotine] here?
The value was “enhance release or block re-uptake of dopamine”.

And the mRNA decrease [3]?
Its mRNA decrease is “Dopamine D2 receptor and tyrosine hydroxylase in PC12 clonal cell line”.

What about the mRNA decrease [1] of the same compound?
The mRNA decrease was “POMC in MBH which was observed after 21 days of spontaneous; also recorded: withdrawl from nicotine; Pdyn in ventral shell of NAc [1]”.

And the mRNA increase [1]?
The mRNA increase was “Mu receptors in VTA; POMC in Arc; POMC in AL of the; also recorded: pituitary; Pdyn in CPu after nicotine withdrawl; Pdvn in HPT [1]; also recorded: c-fos in bed nucleus of stria terminalis, nucleus accumbens shell; also recorded: CREB phosphorylation when exposed to situation where; also recorded: MOR expression [4]; also recorded: c fos in limbic regions of adolescents [5]”.

For `CC(N)Cc1ccc(Cl)cc1` (stereo not drawn) [para-chloroamphetamine], which mRNA decrease [1] is on record?
Its mRNA decrease is “[1] repeated stress in pre-treated rats led to downregulation of BDNF mRNA”.

And the mRNA increase [1]?
Its mRNA increase is “[1] repeated stress in pre-treated animals led to less”.

Which “blockade of substance-induced mRNA increase” value [1] does the source give for `CCN1CCC[C@H]1CNC(=O)c1c(O)c(Cl)cc(Cl)c1OC` [raclopride] here?
Its value is “Cart in nucleus accumbens (effect blocked by both SCH-”.

For “Leptin: Leptin administered directly to VTA”, which firing rate ([4]; VTA) is on record?
Its firing rate is “reduction”.

And the “intracellular JAK-STAT pathway” value ([4]; VTA)?
Its value is “activates”.

And the food intake ([4]; direct administration to VTA)?
Its food intake is “Direct administration of leptin to VTA caused decreased food intake while”.

Which mRNA decrease [1] does the source give for “Substance P (RPKPQQFFGLM; not fully specified (C-terminus); ends and bridges not checked; UniProt P20366 58-68, looked up)” here?
The mRNA decrease was “D2 receptor in nucleus accumbens and frontal cortex [1]”.
